ChEMBL document CHEMBL5303573, “Mapping human microbiome drug metabolism by gut bacteria and their genes” (Nature, 2019)

Tests used:
[1] = The drug is tested on Bacteroides dorei strain: DSM17855 for biotransformation. The drug concentrations were measured before and after a 12-h incubation by liquid-chromatography-coupled mass spectrometry (LC–MS); details: phocaeicola dorei, 2 µM
[2] = The drug is tested on Bacteroides fragilis strain: ATCC43859 for biotransformation. The drug concentrations were measured before and after a 12-h incubation by liquid-chromatography-coupled mass spectrometry (LC–MS); details: 2 µM
[3] = The drug is tested on Coprococcus comes strain: ATCC27758 for biotransformation. The drug concentrations were measured before and after a 12-h incubation by liquid-chromatography-coupled mass spectrometry (LC–MS); type: ADME; parameters: dose 2 uM, timepoint 0 vs 12 hours; details: 2 µM
[4] = The drug is tested on Bacteroides ovatus strain: ATCC8483 for biotransformation. The drug concentrations were measured before and after a 12-h incubation by liquid-chromatography-coupled mass spectrometry (LC–MS); details: 2 µM
[5] = The drug is tested on Edwardsiella tarda strain: ATCC23685 for biotransformation. The drug concentrations were measured before and after a 12-h incubation by liquid-chromatography-coupled mass spectrometry (LC–MS); details: 2 µM
[6] = The drug is tested on Eubacterium ventriosum strain: ATCC27560 for biotransformation. The drug concentrations were measured before and after a 12-h incubation by liquid-chromatography-coupled mass spectrometry (LC–MS); type: ADME; parameters: dose 2 uM, timepoint 0 vs 12 hours; details: 2 µM
[7] = The drug is tested on Providencia rettgeri strain: DSM1131 for biotransformation. The drug concentrations were measured before and after a 12-h incubation by liquid-chromatography-coupled mass spectrometry (LC–MS); type: ADME; parameters: dose 2 uM, timepoint 0 vs 12 hours; details: 2 µM
[8] = The drug is tested on Ruminococcus torques strain: ATCC27756 for biotransformation. The drug concentrations were measured before and after a 12-h incubation by liquid-chromatography-coupled mass spectrometry (LC–MS); type: ADME; parameters: dose 2 uM, timepoint 0 vs 12 hours; details: 2 µM
[9] = The drug is tested on Enterococcus faecalis strain: V583 for biotransformation. The drug concentrations were measured before and after a 12-h incubation by liquid-chromatography-coupled mass spectrometry (LC–MS); details: 2 µM
[10] = The drug is tested on Bacteroides xylanisolvens strain: DSM18836 for biotransformation. The drug concentrations were measured before and after a 12-h incubation by liquid-chromatography-coupled mass spectrometry (LC–MS); details: 2 µM
[11] = The drug is tested on Clostridium symbiosum strain: ATCC14940 for biotransformation. The drug concentrations were measured before and after a 12-h incubation by liquid-chromatography-coupled mass spectrometry (LC–MS); details: 2 µM
[12] = The drug is tested on Bacteroides sp. WH2 strain: WH2 for biotransformation. The drug concentrations were measured before and after a 12-h incubation by liquid-chromatography-coupled mass spectrometry (LC–MS); details: bacteroides sp. wh2, 12 h, 2 µM
[13] = The drug is tested on Clostridium ramosum strain: DSM1402 for biotransformation. The drug concentrations were measured before and after a 12-h incubation by liquid-chromatography-coupled mass spectrometry (LC–MS); details: thomasclavelia ramosa, 2 µM
[14] = The drug is tested on Bacteroides coprophilus strain: DSM18228 for biotransformation. The drug concentrations were measured before and after a 12-h incubation by liquid-chromatography-coupled mass spectrometry (LC–MS); details: 2 µM
[15] = The drug is tested on Eggerthella lenta strain: ATCC25559 for biotransformation. The drug concentrations were measured before and after a 12-h incubation by liquid-chromatography-coupled mass spectrometry (LC–MS); details: 2 µM
[16] = The drug is tested on Blautia luti strain: DSM14534 for biotransformation. The drug concentrations were measured before and after a 12-h incubation by liquid-chromatography-coupled mass spectrometry (LC–MS); type: ADME; parameters: dose 2 uM, timepoint 0 vs 12 hours; details: 2 µM
[17] = bacteroides eggerthii, 12 h, 2 µM
Description: The drug is tested on Bacteroides eggerthii strain: DSM20697 for biotransformation. The drug concentrations were measured before and after a 12-h incubation by liquid-chromatography-coupled mass spectrometry (LC–MS)

[18] = akkermansia muciniphila, 12 h, 2 µM
Description: The drug is tested on Akkermansia muciniphila strain: ATCC BAA-835 for biotransformation. The drug concentrations were measured before and after a 12-h incubation by liquid-chromatography-coupled mass spectrometry (LC–MS)

[19] = The drug is tested on Bacteroides cellulosilyticus strain: DSM14838 for biotransformation. The drug concentrations were measured before and after a 12-h incubation by liquid-chromatography-coupled mass spectrometry (LC–MS); details: 2 µM
[20] = bacteroides thetaiotaomicron, 12 h, 2 µM
Description: The drug is tested on Bacteroides thetaiotaomicron strain: 7330 for biotransformation. The drug concentrations were measured before and after a 12-h incubation by liquid-chromatography-coupled mass spectrometry (LC–MS)

| Bacterial Biotransformation [1] | Bacterial Biotransformation [2] | Bacterial Biotransformation [3] | Bacterial Biotransformation [4] | Bacterial Biotransformation [5] | Bacterial Biotransformation [6] | Bacterial Biotransformation [7] | Bacterial Biotransformation [8] | Bacterial Biotransformation [9] | Bacterial Biotransformation [10] | Bacterial Biotransformation [11] | Bacterial Biotransformation [12] | Bacterial Biotransformation [13] | Bacterial Biotransformation [14] | Bacterial Biotransformation [15] | Bacterial Biotransformation [16] | Bacterial Biotransformation [17] | Bacterial Biotransformation [18] | Bacterial Biotransformation [19] | Bacterial Biotransformation [20] | SMILES |
| --- | --- | --- | --- | --- | --- | --- | --- | --- | --- | --- | --- | --- | --- | --- | --- | --- | --- | --- | --- | --- |
| Compound metabolized | Compound metabolized | Compound metabolized | Compound metabolized | Compound metabolized | Compound metabolized | Compound metabolized | Compound metabolized | Compound metabolized | Compound metabolized | Compound metabolized | Compound metabolized | Compound metabolized | Compound metabolized | Compound metabolized | Compound metabolized | Compound metabolized | Compound metabolized | Compound metabolized | Compound metabolized | CC(=O)Oc1ccc(C(c2ccc(OC(C)=O)cc2)c2ccccn2)cc1 [BISACODYL] |
| Compound metabolized | Compound NOT metabolized | Compound metabolized | Compound metabolized | Compound metabolized | Compound metabolized | Compound metabolized | Compound metabolized | Compound metabolized | Compound metabolized | Compound metabolized | Compound metabolized | Compound metabolized | Compound metabolized | Compound metabolized | Compound metabolized | Compound metabolized | Compound metabolized | Compound metabolized | Compound metabolized | CCN(CC)CCOCCOC(=O)C1(c2ccccc2)CCCC1.O=C(O)CC(O)(CC(=O)O)C(=O)O [CARBETAPENTANE CITRATE] |
| Compound metabolized | Compound NOT metabolized | Compound NOT metabolized | Compound metabolized | Compound NOT metabolized | Compound metabolized | Compound NOT metabolized | Compound NOT metabolized | Compound NOT metabolized | Compound metabolized | Compound NOT metabolized | Compound metabolized | Compound metabolized | Compound metabolized | Compound NOT metabolized | Compound metabolized | Compound NOT metabolized | Compound metabolized | Compound metabolized | Compound metabolized | COc1ccccc1OCCNCC(O)COc1cccc2[nH]c3ccccc3c12 (stereo not given) [CARVEDILOL] |
| Compound metabolized | Compound metabolized | Compound metabolized | Compound metabolized | Compound metabolized | Compound metabolized | Compound metabolized | Compound metabolized | Compound metabolized | Compound metabolized | Compound metabolized | Compound metabolized | Compound metabolized | Compound NOT metabolized | Compound metabolized | Compound metabolized | Compound metabolized | Compound metabolized | Compound metabolized | Compound metabolized | C#C[C@]1(O)CC[C@H]2[C@@H]3CCC4=Cc5oncc5C[C@]4(C)[C@H]3CC[C@@]21C [DANAZOL] |
| Compound metabolized | Compound metabolized | Compound metabolized | Compound metabolized | Compound metabolized | Compound metabolized | Compound metabolized | Compound metabolized | Compound metabolized | Compound metabolized | Compound metabolized | Compound metabolized | Compound metabolized | Compound metabolized | Compound metabolized | Compound metabolized | Compound metabolized | Compound metabolized | Compound metabolized | Compound metabolized | CC(=O)OCC(=O)[C@@]12N=C(C)O[C@@H]1C[C@H]1[C@@H]3CCC4=CC(=O)C=C[C@]4(C)[C@H]3[C@@H](O)C[C@@]12C [DEFLAZACORT] |
| Compound metabolized | Compound metabolized | Compound metabolized | Compound metabolized | Compound metabolized | Compound metabolized | Compound metabolized | Compound metabolized | Compound metabolized | Compound metabolized | Compound metabolized | Compound metabolized | Compound metabolized | Compound metabolized | Compound metabolized | Compound metabolized | Compound metabolized | Compound metabolized | Compound metabolized | Compound metabolized | CC(=O)Nc1ccc(OC(C)=O)cc1 [DIACETAMATE] |
| Compound NOT metabolized | Compound NOT metabolized | Compound metabolized | Compound metabolized | Compound metabolized | Compound metabolized | Compound metabolized | Compound metabolized | Compound metabolized | Compound metabolized | Compound metabolized | Compound metabolized | Compound metabolized | Compound metabolized | Compound metabolized | Compound metabolized | Compound metabolized | Compound metabolized | Compound metabolized | Compound metabolized | CCOc1ccc2nc(S(N)(=O)=O)sc2c1 [ETHOXZOLAMIDE] |

| SMILES | Bacterial Biotransformation [1] | Bacterial Biotransformation [2] | Bacterial Biotransformation [3] | Bacterial Biotransformation [4] | Bacterial Biotransformation [5] | Bacterial Biotransformation [6] | Bacterial Biotransformation [7] | Bacterial Biotransformation [8] | Bacterial Biotransformation [9] | Bacterial Biotransformation [10] | Bacterial Biotransformation [11] | Bacterial Biotransformation [12] | Bacterial Biotransformation [13] | Bacterial Biotransformation [14] | Bacterial Biotransformation [15] | Bacterial Biotransformation [16] | Bacterial Biotransformation [17] | Bacterial Biotransformation [18] | Bacterial Biotransformation [19] | Bacterial Biotransformation [20] |
| --- | --- | --- | --- | --- | --- | --- | --- | --- | --- | --- | --- | --- | --- | --- | --- | --- | --- | --- | --- | --- |
| C[C@@H]1CC[C@H]2[C@@H](C)C(=O)O[C@@H]3O[C@@]4(C)CC[C@@H]1[C@]32OO4 [ARTEMISININ] | Compound metabolized | Compound metabolized | Compound metabolized | Compound metabolized | Compound metabolized | Compound metabolized | Compound metabolized | Compound metabolized | Compound metabolized | Compound metabolized | Compound metabolized | Compound metabolized | Compound metabolized | Compound metabolized | Compound metabolized | Compound metabolized | Compound metabolized | Compound metabolized | Compound metabolized | Compound metabolized |
